US9096536B2, “Asymmetrically substituted anthrapyridazone derivatives as cytostatics” (BS-154 S.P. ZO.O., priority 2011, dated 2015)

What was measured:
HL60/VINC = test: Cytostatic activity in vitro, vincristine-induced resistant subline (MDR-1); format: cell-based, human; settings: for IC50: 72 h continuous exposure; for RI resistance index HL60/VINC: IC50(resistant cells)/IC50(sensitive cells), HL60/VINC vs HL60, 72 h
Text: (§1) Tables 3 and 4 show cytostatic activity in vitro of 2,6-disubstituted and 2- or 6-monosubstituted (Tab.3), and of 2,5-disubstituted-(Tab.-4) tetracyclic anthrapyridazone derivatives using leukemia cell line HL-60 and the resistant cell sublines with resistance induced by vincristine (MDR-1) or doxorubicin (MRP). Activity of compounds is differentiated depending on their structure, but in all cases resistance indexes are more advantageous in comparison with reference compounds: doxorubicin and mitoxantrone.

CT-DNA = test: Interaction with isolated CT-DNA, fluorescence competition with ethidium bromide; format: binding; settings: for IC50: 50% decrease in fluorescence intensity of DNA-bromide ethydine complex; for Kapp relative constant of DNA-compound bonding: Kapp = (1.26/C50) × KEtBr, KEtBr = 10^7M
Text: It could be supposed that this property explains cytostatic activity of compounds. In Table 9 there are presented quantitative data on the affinity to DNA of tested compounds using the fluorescence method and competitive affinity to DNA of bromine ethydine and tested compounds.

[1] = tested on: human prostate cancer cell line DU145; test: Cytostatic activity in vitro, prostate cancer DU145; format: cell-based; settings: 72 h continuous exposure
Text: (§2) Table 5 presents activity in vitro of anthrapiridazone derivatives towards three cell lines of prostate cancer, naturally multidrug resistant, in comparison with references doxorubicin, mitoxantrone and taxol.

HL60/DX = test: Cytostatic activity in vitro, doxorubicin-induced resistant subline (MRP); format: cell-based, human; settings: for IC50: 72 h continuous exposure; for RI resistance index HL60/DX: IC50(resistant cells)/IC50(sensitive cells), HL60/DX vs HL60, 72 h
Text: as §1

[2] = tested on: human prostate cancer cell line PC3; test: Cytostatic activity in vitro, prostate cancer PC3; format: cell-based; settings: 72 h continuous exposure
Text: as §2

[3] = tested on: human promyelocytic leukemia cell line HL-60; test: Cytostatic activity in vitro, HL-60 sensitive line; format: cell-based; settings: 50% inhibition of cell growth after 72 h continuous exposure; read-out: HL60 IC50
Text: as §1

[4] = tested on: human prostate cancer cell line LNCaP; test: Cytostatic activity in vitro, prostate cancer LNCaP; format: cell-based; settings: 72 h continuous exposure
Text: as §2

SMILES | IC50 (HL60/VINC) [nM] | IC50 (CT-DNA) [nM] | IC50 [1] [nM] | IC50 (HL60/DX) [nM] | IC50 [2] [nM] | IC50 [3] [nM] | IC50 [4] [nM] | RI resistance index HL60/VINC (HL60/VINC) | Kapp relative constant of DNA-compound bonding (CT-DNA) [M⁻¹] | RI resistance index HL60/DX (HL60/DX)
CCN(CC)CCNc1ccc2c(=O)[nH]nc3c2c1C(=O)c1ccccc1-3 [PDZ-18, 6-(2-Diethylaminoethyloamino)-2,7-dihydro-3H-dibenzo[de,h]cynnoline-3,7-dione] | 597 ± 16 | 1960 ± 120 | 418 ± 58 | 3500 ± 752 | 974 ± 159 | 115 ± 3 | 465 ± 121 | 5.2 | 6.4e+06 | 30.4
CN(C)CCn1nc2c3c(c(NCC(=O)N(C)C)ccc3c1=O)C(=O)c1ccccc1-2 [PDZ-12, 2-[2-(Dimethylamino)ethyl]-6-[(N,N-dimethylacetamido)amino]-2,7-dihydro-3H-dibenzo[de,h]cynnoline-3,7-dione] | 947 ± 111 | 2640 ± 290 | 169 ± 47 | 2680 ± 768 | 947 ± 37 | 113 ± 7 | 237 ± 45 | 8.4 | 4.8e+06 | 23.7
Nc1ccc2c(=O)n(CCN3CCCCC3)nc3c2c1C(=O)c1ccccc1-3 [PDZ-5, 2-[2-(Piperidinamino)ethyl]-6-amino-2,7-dihydro-3H-dibenzo[de,h]-cynnoline-3,7-dione] | 677 ± 29 | 1690 ± 100 | 538 ± 45 | 1360 ± 135 | 886 ± 170 | 382 ± 56 | 474 ± 76 | 1.8 | 7.5e+06 | 3.6
Nc1ccc2c(=O)n(CCN3CCOCC3)nc3c2c1C(=O)c1ccccc1-3 [PDZ-4, 2-(2-Morpholinethyl)-6-amino-2,7-dihydro-3H-dibenzo[de,h]cynnoline-3,7-dione] | 2550 ± 286 | 16800 ± 410 | 3280 ± 355 | 4720 ± 389 | 5110 ± 206 | 2080 ± 169 | 2790 ± 276 | 1.2 | 700000 | 2.3

Now those with a lower IC50 (HL60/VINC), led by results:

IC50 (HL60/VINC) [nM] | IC50 (CT-DNA) [nM] | IC50 [1] [nM] | IC50 (HL60/DX) [nM] | IC50 [2] [nM] | IC50 [3] [nM] | IC50 [4] [nM] | SMILES | RI resistance index HL60/VINC (HL60/VINC) | Kapp relative constant of DNA-compound bonding (CT-DNA) [M⁻¹] | RI resistance index HL60/DX (HL60/DX)
489 ± 68 | 3080 ± 190 | 462 ± 52 | 3060 ± 992 | 963 ± 171 | 213 ± 64 | 323 ± 34 | CN(C)CCn1nc2c3c(cccc3c1=O)C(=O)c1ccccc1-2 [PDZ-15, 2-[2-(Dimethylamino)ethyl]-2,7-dihydro-3H-dibenzo[de,h]cynnoline-3,7-dione] | 2.3 | 4.1e+06 | 14.4
509 ± 54 | 1760 ± 120 | 725 ± 121 | 919 ± 89 | 709 ± 163 | 269 ± 41 | 549 ± 85 | CN(C)CCCn1nc2c3c(c(N)ccc3c1=O)C(=O)c1ccccc1-2 [PDZ-3, 2-[3-(Dimethylamino)propyl]-6-amino-2,7-dihydro-3H-dibenzo[de,h]cynnoline-3,7-dione] | 1.9 | 7.1e+06 | 3.4
30.8 ± 4 | 370 ± 80 | 14.3 ± 3.3 | 706 ± 57 | 51.6 ± 12.4 | 2.1 ± 0.4 | 8.1 ± 1 | CN(C)CCn1nc2c3c(c(NCCNCCO)ccc3c1=O)C(=O)c1ccccc1-2 [Compound C-165, 2-[2-(Dimethylamino)ethyl]-6-[2-(2-aminoethylamino)ethanolo]-2,7-dihydro-3H-dibenzo[de,h]cynnoline-3,7-dione] | 14.7 | 3.44e+07 | 336.2
477 ± 39 | 460 ± 80 | 344 ± 43 | 2870 ± 447 | 606 ± 38 | 98 ± 19 | 166 ± 40 | O=C1c2ccccc2-c2nn(CCN3CCCCC3)c(=O)c3ccc(NCCNCc4ccccc4)c1c23 [PDZ-17, 2-[2-(Piperidinamino)ethyl]-6-(2-benzylaminoethylamino)-2,7-dihydro-3H-dibenzo [de,h]cynnoline-3,7-dione] | 4.9 | 2.72e+07 | 29.3
